Test: Solid state solubility of PTX and TXT in polymers (phase separation in cast films)
Type: physicochemical
Set-up: key: +ve: Phase separation; −ve: No phase separation
From the text: For this example, polymer and drug solutions in chloroform at different % of drug to polymer were casted into films on glass slides. Following solvent evaporation of chloroform in a chemical hood overnight, the casted films were observed under a light microscope. Phase separation was clearly evident from crystallization of the drug in the polymer film whereas the films were homogeneous when there was no phase separation.

Structure (SMILES): CC(=O)O[C@H]1C(=O)[C@@]2(C)[C@H]([C@H](OC(=O)c3ccccc3)[C@]3(O)C[C@H](OC(=O)[C@H](O)[C@@H](NC(=O)c4ccccc4)c4ccccc4)C(C)=C1C3(C)C)[C@]1(OC(C)=O)CO[C@@H]1C[C@@H]2O [Paclitaxel, 5ß,20-Epoxy-1,2a,4,7ß,10ß,13a-hexahydroxytax-11-en-9-one 4,10-diacetate 2-benzoate 13-ester with (2R,3S)-N-benzoyl-3-phenylisoserine]
- Phase Separation (drug 1% w/w, polymer inherent viscosity 0.16 dL/g, Lactide/Glycolide 50/50): +
- Phase Separation (drug 1% w/w, polymer inherent viscosity 0.18 dL/g, Lactide/Glycolide 75/25): +
- Phase Separation (drug 1% w/w, polymer inherent viscosity 0.26-0.54 dL/g, Lactide/Glycolide 50/50, Ester Terminated): −
- Phase Separation (drug 1% w/w, polymer inherent viscosity 0.39 dL/g, Lactide/Glycolide 50/50): +
- Phase Separation (drug 1% w/w, polymer inherent viscosity 0.55-0.75 dL/g, Lactide/Glycolide 50/50, Carbohydrate end Group): −
- Phase Separation (drug 1% w/w, polymer inherent viscosity 0.63 dL/g, Lactide/Glycolide 85/15): +
- Phase Separation (drug 1% w/w, polymer inherent viscosity 0.64 dL/g, Lactide/Glycolide 65/35): +
- Phase Separation (drug 1% w/w, polymer inherent viscosity 0.64 dL/g, Lactide/Glycolide 75/25): +
- Phase Separation (drug 1% w/w, polymer inherent viscosity 0.67 dL/g, Lactide/Glycolide 65/35): +
- Phase Separation (drug 1% w/w, polymer inherent viscosity 0.69 dL/g, Lactide/Glycolide 50/50 (first of two such lines, r12)): +
- Phase Separation (drug 1% w/w, polymer inherent viscosity 0.69 dL/g, Lactide/Glycolide 50/50 (second of two such lines, r13)): +
- Phase Separation (drug 1% w/w, polymer inherent viscosity 0.76-0.94 dL/g, Lactide/Glycolide 50/50): +
- Phase Separation (drug 1% w/w, polymer inherent viscosity 0.87 dL/g, Lactide/Glycolide 50/50): +
- Phase Separation (drug 1% w/w, polymer inherent viscosity 0.95-1.20 dL/g, Lactide/Glycolide 50/50): −
- Phase Separation (drug 1% w/w, polymer inherent viscosity 1.15 dL/g, Lactide/Glycolide 50/50): +
- Phase Separation (drug 1% w/w, polymer inherent viscosity 1.24 dL/g, Lactide/Glycolide 50/50): +
- Phase Separation (drug 5% w/w, polymer inherent viscosity 0.16 dL/g, Lactide/Glycolide 50/50): +
- Phase Separation (drug 5% w/w, polymer inherent viscosity 0.18 dL/g, Lactide/Glycolide 75/25): +
- Phase Separation (drug 5% w/w, polymer inherent viscosity 0.26-0.54 dL/g, Lactide/Glycolide 50/50, Ester Terminated): −
- Phase Separation (drug 5% w/w, polymer inherent viscosity 0.39 dL/g, Lactide/Glycolide 50/50): +
- Phase Separation (drug 5% w/w, polymer inherent viscosity 0.55-0.75 dL/g, Lactide/Glycolide 50/50, Carbohydrate end Group): −
- Phase Separation (drug 5% w/w, polymer inherent viscosity 0.63 dL/g, Lactide/Glycolide 85/15): +
- Phase Separation (drug 5% w/w, polymer inherent viscosity 0.64 dL/g, Lactide/Glycolide 65/35): +
- Phase Separation (drug 5% w/w, polymer inherent viscosity 0.64 dL/g, Lactide/Glycolide 75/25): +
- Phase Separation (drug 5% w/w, polymer inherent viscosity 0.67 dL/g, Lactide/Glycolide 65/35): +
- Phase Separation (drug 5% w/w, polymer inherent viscosity 0.69 dL/g, Lactide/Glycolide 50/50 (first of two such lines, r12)): +
- Phase Separation (drug 5% w/w, polymer inherent viscosity 0.69 dL/g, Lactide/Glycolide 50/50 (second of two such lines, r13)): +
- Phase Separation (drug 5% w/w, polymer inherent viscosity 0.76-0.94 dL/g, Lactide/Glycolide 50/50): +
- Phase Separation (drug 5% w/w, polymer inherent viscosity 0.87 dL/g, Lactide/Glycolide 50/50): +
- Phase Separation (drug 5% w/w, polymer inherent viscosity 0.95-1.20 dL/g, Lactide/Glycolide 50/50): −
- Phase Separation (drug 5% w/w, polymer inherent viscosity 1.15 dL/g, Lactide/Glycolide 50/50): +
- Phase Separation (drug 5% w/w, polymer inherent viscosity 1.24 dL/g, Lactide/Glycolide 50/50): +
- Phase Separation (drug 10% w/w, polymer inherent viscosity 0.16 dL/g, Lactide/Glycolide 50/50): +
- Phase Separation (drug 10% w/w, polymer inherent viscosity 0.18 dL/g, Lactide/Glycolide 75/25): +
- Phase Separation (drug 10% w/w, polymer inherent viscosity 0.26-0.54 dL/g, Lactide/Glycolide 50/50, Ester Terminated): −
- Phase Separation (drug 10% w/w, polymer inherent viscosity 0.39 dL/g, Lactide/Glycolide 50/50): +
- Phase Separation (drug 10% w/w, polymer inherent viscosity 0.55-0.75 dL/g, Lactide/Glycolide 50/50, Carbohydrate end Group): −
- Phase Separation (drug 10% w/w, polymer inherent viscosity 0.63 dL/g, Lactide/Glycolide 85/15): +
- Phase Separation (drug 10% w/w, polymer inherent viscosity 0.64 dL/g, Lactide/Glycolide 65/35): +
- Phase Separation (drug 10% w/w, polymer inherent viscosity 0.64 dL/g, Lactide/Glycolide 75/25): +
- Phase Separation (drug 10% w/w, polymer inherent viscosity 0.67 dL/g, Lactide/Glycolide 65/35): +
- Phase Separation (drug 10% w/w, polymer inherent viscosity 0.69 dL/g, Lactide/Glycolide 50/50 (first of two such lines, r12)): +
- Phase Separation (drug 10% w/w, polymer inherent viscosity 0.69 dL/g, Lactide/Glycolide 50/50 (second of two such lines, r13)): +
- Phase Separation (drug 10% w/w, polymer inherent viscosity 0.76-0.94 dL/g, Lactide/Glycolide 50/50): +
- Phase Separation (drug 10% w/w, polymer inherent viscosity 0.87 dL/g, Lactide/Glycolide 50/50): +
- Phase Separation (drug 10% w/w, polymer inherent viscosity 0.95-1.20 dL/g, Lactide/Glycolide 50/50): −
- Phase Separation (drug 10% w/w, polymer inherent viscosity 1.15 dL/g, Lactide/Glycolide 50/50): +
- Phase Separation (drug 10% w/w, polymer inherent viscosity 1.24 dL/g, Lactide/Glycolide 50/50): +
- Phase Separation (drug 15% w/w, polymer inherent viscosity 0.16 dL/g, Lactide/Glycolide 50/50): +
- Phase Separation (drug 15% w/w, polymer inherent viscosity 0.18 dL/g, Lactide/Glycolide 75/25): +
- Phase Separation (drug 15% w/w, polymer inherent viscosity 0.26-0.54 dL/g, Lactide/Glycolide 50/50, Ester Terminated): −
- Phase Separation (drug 15% w/w, polymer inherent viscosity 0.39 dL/g, Lactide/Glycolide 50/50): +
- Phase Separation (drug 15% w/w, polymer inherent viscosity 0.55-0.75 dL/g, Lactide/Glycolide 50/50, Carbohydrate end Group): −
- Phase Separation (drug 15% w/w, polymer inherent viscosity 0.63 dL/g, Lactide/Glycolide 85/15): +
- Phase Separation (drug 15% w/w, polymer inherent viscosity 0.64 dL/g, Lactide/Glycolide 65/35): +
- Phase Separation (drug 15% w/w, polymer inherent viscosity 0.64 dL/g, Lactide/Glycolide 75/25): +
- Phase Separation (drug 15% w/w, polymer inherent viscosity 0.67 dL/g, Lactide/Glycolide 65/35): +
- Phase Separation (drug 15% w/w, polymer inherent viscosity 0.69 dL/g, Lactide/Glycolide 50/50 (first of two such lines, r12)): +
- Phase Separation (drug 15% w/w, polymer inherent viscosity 0.69 dL/g, Lactide/Glycolide 50/50 (second of two such lines, r13)): +
- Phase Separation (drug 15% w/w, polymer inherent viscosity 0.76-0.94 dL/g, Lactide/Glycolide 50/50): +
- Phase Separation (drug 15% w/w, polymer inherent viscosity 0.87 dL/g, Lactide/Glycolide 50/50): +
- Phase Separation (drug 15% w/w, polymer inherent viscosity 0.95-1.20 dL/g, Lactide/Glycolide 50/50): −
- Phase Separation (drug 15% w/w, polymer inherent viscosity 1.15 dL/g, Lactide/Glycolide 50/50): +
- Phase Separation (drug 15% w/w, polymer inherent viscosity 1.24 dL/g, Lactide/Glycolide 50/50): +
- Phase Separation (drug 20% w/w, polymer inherent viscosity 0.16 dL/g, Lactide/Glycolide 50/50): +
- Phase Separation (drug 20% w/w, polymer inherent viscosity 0.18 dL/g, Lactide/Glycolide 75/25): +
- Phase Separation (drug 20% w/w, polymer inherent viscosity 0.26-0.54 dL/g, Lactide/Glycolide 50/50, Ester Terminated): −
- Phase Separation (drug 20% w/w, polymer inherent viscosity 0.39 dL/g, Lactide/Glycolide 50/50): +
- Phase Separation (drug 20% w/w, polymer inherent viscosity 0.55-0.75 dL/g, Lactide/Glycolide 50/50, Carbohydrate end Group): −
- Phase Separation (drug 20% w/w, polymer inherent viscosity 0.63 dL/g, Lactide/Glycolide 85/15): +
- Phase Separation (drug 20% w/w, polymer inherent viscosity 0.64 dL/g, Lactide/Glycolide 65/35): +
- Phase Separation (drug 20% w/w, polymer inherent viscosity 0.64 dL/g, Lactide/Glycolide 75/25): +
- Phase Separation (drug 20% w/w, polymer inherent viscosity 0.67 dL/g, Lactide/Glycolide 65/35): +
- Phase Separation (drug 20% w/w, polymer inherent viscosity 0.69 dL/g, Lactide/Glycolide 50/50 (first of two such lines, r12)): +
- Phase Separation (drug 20% w/w, polymer inherent viscosity 0.69 dL/g, Lactide/Glycolide 50/50 (second of two such lines, r13)): +
- Phase Separation (drug 20% w/w, polymer inherent viscosity 0.76-0.94 dL/g, Lactide/Glycolide 50/50): +
- Phase Separation (drug 20% w/w, polymer inherent viscosity 0.87 dL/g, Lactide/Glycolide 50/50): +
- Phase Separation (drug 20% w/w, polymer inherent viscosity 0.95-1.20 dL/g, Lactide/Glycolide 50/50): +
- Phase Separation (drug 20% w/w, polymer inherent viscosity 1.15 dL/g, Lactide/Glycolide 50/50): +
- Phase Separation (drug 20% w/w, polymer inherent viscosity 1.24 dL/g, Lactide/Glycolide 50/50): +

— patent US11013817B2, “Nanoparticles for drug delivery to treat bone disease” (The Cleveland Clinic Foundation, priority 2016, dated 2021)
